Data on three compounds can be found in US5262421A, “Use of dicentrine and its derivatives for the treatment of hypertension, arrhythmia, thrombosis and atherosclerosis” (National Science Council, priority 1991, dated 1993).

“Also recorded” adds a separate entry of the source.

Test [1] concerns rats fed with high cholesterol and high fat diet. Description: Blood cholesterol and triglyceride in rats fed high cholesterol and high fat diet. It counts as in vivo, rat. The conditions noted are these: for Cholesterol / Triglyceride: high cholesterol & fat diet, dicentrine 10 mg/kg or prazosin 5 mg/kg, oral twice a day in last week; for Cholesterol: diet control 120 ± 7.1, normal diet 62 ± 4.5; for Triglyceride: diet control 305 ± 11.1, normal diet 84 ± 5.4.

Test [2] has as its system isolated thoracic aorta of rats fed with high cholesterol and high fat diet. Description: Contractile force of isolated thoracic aorta from rats fed high cholesterol and high fat diet. The format is in vivo, rat. The conditions noted are these: for contractile force: high cholesterol & fat diet, dicentrine 10 mg/kg, prazosin 5 mg/kg.
The subject of test [3] is anesthetized rats. Description: Systemic hemodynamic parameters of pentobarbital-anesthetized rats. The note with it: for Blood flow: before 7 ± 4; for total peripheral resistance: dicentrine 1.0 mg/kg, prazosin 0.1 mg/kg. It counts as in vivo, rat.
The test system of test [4] is rat ventricular cells. The test is described as follows: Action potential of rat ventricular cells. It counts as cell-based. The conditions noted are these: for Tp (time to peak) / APD50 (action potential duration at 50% repolarization) / AP amplitude (initial upstroke amplitude): 3 μM; for Tp (time to peak): control 5.0 ± 0.5 (dicentrine), 5.3 ± 0.5 (quinidine); for APD50 (action potential duration at 50% repolarization): control 59.9 ± 11.3 (dicentrine), 62.6 ± 3.9 (quinidine); for AP amplitude (initial upstroke amplitude): control 138.3 ± 2.6 (dicentrine), 135.2 ± 2.2 (quinidine). An excerpt: (§1) In rat ventricular cells, the effects of dicentrine on action potential and membrane current were studied. […] However, calcium current was less affected.
The effects of dicentrine and quinidine on action potential were compared and studied in rat ventricular cells. […] In addition to the prolongation of APD50, a depression of initial upstroke amplitude from 138.3±2.6 mV to 125.5±4.5 mV and prolongation of the time to peak amplitude from 5.0±0.5 msec to 10.0±1.9 msec were observed.
Means ± S.E.M. are presented. *: P < 0.05 as compared with the
APD50 : action potential duration measured at 50% repolarization fro
Tp : time to peak measured from the start of depolarization to the
Concentration: dicentrine (3 μM), quinidine (3 μM).

The subject of test [5] is rat thoracic aortae. The test is described as follows: Norepinephrine-induced contraction of rat thoracic aortae (phasic and tonic). The conditions noted are these: in words.
In test [6] the test system is Thromboxane B2 formation in washed rabbit platelets. Description: Thromboxane B2 formation in washed rabbit platelets (RIA). The format is cell-based. The note with it: for Thromboxane B2: dicentrine 150 μM. The procedure:
(§2) At 6 min after the addition of inducer, indomethacin (50 μM) and EDTA (2 mM) were added to stop the reaction, and thromboxane B2 was assayed by RIA kits.
(§3) Means ± S.E.M. are presented. *: P < 0.05, **: P < 0.01, ***: P < 0.00
(§4) as compared with the respective control. Concentration: arachidonic acid
(§5) (100 μM), collagen (10 ug/ml), thrombin (0.1 U/ml), dicentrine (150

Test [7] deals with α1-adrenoceptor (rat thoracic aortae). Description: Schild analysis of α1-adrenoceptor antagonism: norepinephrine- and phenylephrine-induced contraction of rat thoracic aortae.
Text: Results are given as means ± S.E.M. or the mean with 95% confidence
Test [8] relates to membrane currents of rat ventricular cells. The test is described as follows: Voltage clamp, membrane currents in rat ventricular cells. It counts as cell-based.
Text: as §1

Test [9] relates to washed rabbit platelets. The test is described as follows: Aggregation of washed rabbit platelets induced by arachidonic acid, collagen, thrombin, ADP or PAF. The conditions noted are these: for Aggregation (%): dicentrine 150 μM. It counts as cell-based.
Text: These fractions inhibited the aggregation of washed rabbit platelets induced by ADP, collagen, arachidonic acid and platelet-activating factor (PAF). […] Furthermore, the action potential of rat ventricular cells was prolonged by these fractions. After rechromatography on a silica gel column with n-hexane-ethylacetate (2:1), four potent compounds, dicentrine, N-methylnandigerine, N-methylovigenine and dicentrinone were obtained.
500 g of dried, ground root material Lindera oldhamu (megaphylla) Hemsl was extracted with 95% ethanol, and the extract was concentrated in vacuo and fractionated into ethanol- and ethylacetate-soluble fractions. The ethylacetate-soluble fraction was then applied to a column of silica gel and eight fractions were obtained.
as §3, §4
(100 μM), collagen (10 μg/ml), norepinephrine (NE, 3 μM), each
as §2, §5

Test [10] has as its system conscious spontaneously hypertensive (SH) and normotensive (NT) rats. The test is described as follows: Mean arterial pressure in conscious spontaneously hypertensive (SH) and normotensive (NT) rats. The format is in vivo, rat.
For test [11], the system named is rat thoracic aorta. The test is described as follows: Aortic contraction induced by other agonists. The note with it: in words.
Test [12] deals with guinea-pig trachea. Description: Contraction and relaxation of guinea-pig trachea. The conditions noted are these: in words.
The mark [13] stands for this setting: pentobarbital-anesthetized rats, in words.
Setting [14] is: oral twice a day (10 mg/kg) in the last week, in words.

On to `COc1cc2nc(N3CCN(C(=O)c4ccco4)CC3)nc(N)c2cc1OC` [prazosin, reference compound], for which the Cholesterol in test [1] was 112 ± 3.9 mg/dL. Also, in test [1], the Triglyceride worked out at 114 ± 9.2 mg/dL. The contractile force in test [2] (phenylephrine 3 × 10^-6 M) amounted to 0.87 ± 0.12 g; in test [2] (phenylephrine 3 × 10^-7 M), 0.70 ± 0.09 g; in [2] (phenylephrine 3 × 10^-8 M), 0.30 ± 0.05 g; in test [2] (phenylephrine 10^-6 M) it was 0.80 ± 0.12 g; in test [2] (phenylephrine 10^-7 M) it was 0.51 ± 0.08 g. The same compound returned a Blood flow in test [3] (after prazosin 0.1 mg/kg) of 171 ± 14. In test [3] (after prazosin 0.1 mg/kg, before 27 ± 3), this compound displayed a CO of 32 ± 3 mL/min. The MAP in test [3] (after prazosin 0.1 mg/kg, before 120 ± 4) was determined as 68 ± 6 mm Hg. In test [3] (after prazosin 0.1 mg/kg, before 367 ± 9), this compound returned an HR of 337 ± 10 bpm. Further, the total peripheral resistance result in [3] is listed as “reduction”. For the same compound, in test [3] (setting [13]), the “cardiac output (CO)” value is given as “little or no change”. Besides, the “mean arterial pressure (MAP)” value in test [3] (setting [13]) was “decrease”.
Take `C=C[C@H]1C[N@@]2CC[C@H]1C[C@@H]2[C@@H](O)c1ccnc2ccc(OC)cc12` [quinidine, reference compound]: in test [4], the “Tp (time to peak)” value is 10.8 ± 2.4 ms, the “APD50 (action potential duration at 50% repolarization)” value was found to be 276.0 ± 18.6 ms and the “AP amplitude (initial upstroke amplitude)” value (“AP amplitude” below) was 121.2 ± 2.3 mV.
Consider `COc1cc2c(cc1OC)-c1c3c(cc4c1[C@H](C2)N(C)CC4)OCO3` [dicentrine], for which, in [5], the “vasorelaxant activity in rat thoracic aorta” value was “most potent vasorelaxant”. The Thromboxane formations entry in [6] (caused by arachidonic acid, collagen and thrombin, in words) is “all suppressed”. Also, the “Thromboxane B2” value in test [6] (inducer arachidonic acid 100 μM, control 445 ± 44) stood at 19 ± 15 ng/10^8 platelets. In addition, the “Thromboxane B2” value in [6] (inducer collagen 10 ug/ml, control 478 ± 93) was found to be 70 ± 5 ng/10^8 platelets. For the same compound, in test [6] (inducer thrombin 0.1 U/ml, control 131 ± 25), the “Thromboxane B2” value amounted to 44 ± 14 ng/10^8 platelets. Further, the “α1-adrenoceptor antagonism, relative potency” value in [7] (comparison with prazosin, yohimbine and phentolamine) is reported as “less potent than prazosin; also recorded: much more potent than phentolamine or yohimbine”. In addition, in test [7] (denuded aortae), the “effects in denuded aortae” value is “still persisted”. For the same compound, the “norepinephrine- or phenylephrine-induced vasoconstriction of rat aortae” value in [7] (in words) was “competitive antagonism”. Also, the serum triglyceride level entry in test [1] (cholesterol-triglyceride-rich diet, in words) is “decreased”. Also, in [1], the Cholesterol is 112 ± 4.6 mg/dL and the Triglyceride was found to be 108 ± 4.3 mg/dL. Also, in test [1] (setting [14]), the blood cholesterol level result is “unchanged” and the triglyceride level entry is recorded as “restored to normal levels”. For the same compound, in [4], the “Tp (time to peak)” value worked out at 10.0 ± 1.9 ms, the “APD50 (action potential duration at 50% repolarization)” value is 201.9 ± 28.7 ms and the “AP amplitude” value is on record as 125.5±4.5 mV. Besides, in [4] (listed as Dicentrine), the “Tp (time to peak)” value worked out at 10.0 ± 1.9 ms, the “APD50 (action potential duration at 50% repolarization)” value stood at 201.9 ± 28.7 ms and the “AP amplitude” value was determined as 125.5 ± 4.5 mV. In [4] (stimulation frequency 0.1 Hz), the action potential result is “prolonged”, the initial upstroke amplitude result is recorded as “reduced” and the time to peak entry was “increased”. Also, in test [8], the calcium current entry was “less affected”, the “fast sodium inward current” value was “inhibition”, the “steady state outward current” value is given as “significant inhibition” and the transient outward current entry was “significant inhibition”. The “aggregation of washed rabbit platelets” value in test [9] (induced by arachidonic acid and collagen, in words) is “inhibited”. Further, the “Aggregation (%)” value in [9] (inducer arachidonic acid 100 μM, control 92 ± 1) is given as 11 ± 7%. Besides, the “Aggregation (%)” value in test [9] (inducer collagen 10 ug/ml, control 94 ± 1) was 51 ± 7%. Further, in test [9] (inducer thrombin 0.1 U/ml, control 95 ± 2), the “Aggregation (%)” value was determined as 92 ± 2%. Further, in test [10] (conscious SH and NT rats), the mean arterial pressure result is recorded as “dose-related decreases in mean arterial pressure which were of a greater magnitude in SH rats than in NT rats”. Moreover, in test [10] (oral administration, conscious SH rats), the “duration of hypotensive effect” value was “over 15 hr”. Also, the “contractile force of aorta” value in [2] (cholesterol-triglyceride-treated rats, in words) is “restored the contractile force of cholesterol-triglyceride-treated rat aortae back to normal values”. In addition, the “maximal contractile force of isolated thoracic aorta” value in [2] (setting [14]) is reported as “restored to normal range”. In test [2] (phenylephrine 3 × 10^-6 M), this compound had a contractile force of 0.75 ± 0.12 g. This compound registered a contractile force in [2] (phenylephrine 3 × 10^-7 M) of 0.55 ± 0.07 g. In addition, in test [2] (phenylephrine 3 × 10^-8 M), the contractile force turned out to be 0.22 ± 0.05 g. Further, the contractile force in test [2] (phenylephrine 10^-6 M) is on record as 0.67 ± 0.11 g. In [2] (phenylephrine 10^-7 M), this compound registered a contractile force of 0.55 ± 0.07 g. The Blood flow in test [3] (after dicentrine 1.0 mg/kg) is 200 ± 27. This compound yielded a CO in test [3] (after dicentrine 1.0 mg/kg, before 21 ± 2) of 25 ± 4 mL/min. Further, in test [3] (after dicentrine 1.0 mg/kg, before 122 ± 5), the MAP was determined as 62 ± 5 mm Hg. This compound came in with an HR in test [3] (after dicentrine 1.0 mg/kg, before 353 ± 10) of 348 ± 8 bpm. In [3] (after α1-adrenoceptor blockade), the “hypotensive activity after α1-adrenoceptor blockade” value is on record as “completely abolished”. Also, the “mean arterial blood pressure” value in [3] (anesthetized rats, i.v. bolus 0.1-1.0 mg/kg) was “dose-related reduction”. In addition, the “duration of reduction in mean arterial blood pressure” value in [3] (anesthetized rats, i.v. bolus 0.1-1.0 mg/kg, throughout observation period) is at least 2 h. For the same compound, in test [3], the total peripheral resistance entry is recorded as “reduction”. For the same compound, in test [3] (setting [13]), the “cardiac output (CO)” value was “little or no change”; the “heart rate (HR), or stroke volume (SV)” value is listed as “no change”; the “mean arterial pressure (MAP)” value is “decrease”. Also, the “aortic contraction induced by U-46619, angiotensin II, high potassium or carbachol” value in test [11] is given as “did not affect”. For the same compound, in test [12], the “contraction of guinea-pig trachea caused by histamine or carbachol” value is “slightly inhibited” and the “β-adrenoceptor relaxation to isoprenaline in trachea” value is given as “not affected”.
